From patent US10364466B2, “Biological markers for identifying patients for treatment with VEGF antagonists” (Genentech, Inc., priority 2012, dated 2019)

Legend:
[1] = test system: metastatic colorectal carcinoma (CRC); settings: whole NO16966 study, Saltz et al. 2008; cited from earlier work
[2] = test system: metastatic colorectal carcinoma (CRC); settings: patients with metastatic CRC, Hurwitz et al. 2004; cited from earlier work
VDV gene expression = test: Microarray VDV signature expression in pre- and post-treatment biopsies of inflammatory breast cancer patients (Table 3, human IBC Log2FC); format: in vivo; settings: 19 inflammatory breast cancer patients, one dose single agent, 21 days post-treatment; published micro-array data (Wedam et al.)
From the text: The log2 ratio intensity values from Agilent WMG microarrays and the Robust Multi-array Average (RMA) normalized intensities (also on the logarithmic scale) from Affymetrix Mouse430.2 microarrays were imported into R as expression sets using the package “Biobase,” and a linear model was fitted to each feature using the functions “lmFit” and “eBayes” in the “limma” package. […] The union of these genes was taken as representative of the VEGF-responsive vasculature. The extent to which this VDV gene expression signature varied in other experiments was determined by fitting a linear model to the microarray data using the “limma” package (as above) and calculating the mean of the t-statistics from gene in the signature according to the method of Falcon and Gentleman (Bioinformatics. 23: 257-258, 2007).
As depicted in Table 3 below, the genes in the VDV signature were ordered by the extent of anti-VEGF response in the human IBC trial. Orthologs between human and mouse were mapped using the Ensembl Biomart, where “Log 2FC” represents the log(2) fold-change of the gene's expression post-Avastin treatment as compared to pre-treatment. The 19 paired patient samples and the murine PNETs were analyzed on Agilent microarrays. […]

[3] = test system: metastatic colorectal carcinoma (CRC); test: NO16966 first-line metastatic colorectal cancer trial, PFS and OS, stratified by 22-gene VDV signature; format: in vivo, human
Method: Sections from archival tumor samples from patients enrolled in the XELOX treatment arms of NO 16966 were evaluated by a pathologist and high tumor content area macro-dissected for subsequent RNA isolation using the FFPE RNA isolation kit (Roche; 7-10 sections per patient). RNA levels were assessed after cDNA synthesis following standard techniques, with the qPCR protocol on the Fluidigm Biomark platform according to the manufacturer's protocol.
Quantitative histological data from various animal experiments were plotted using Microsoft Excel software. Student's t test was applied to compare data sets of interest and differences with p values <0.05 were considered significant. 103 biopsies out of 1017 patients from the XELOX (capecitabine and oxaliplatin)-containing arm in the NO16966 trial were analyzed for the gene expression of VDV genes. qRT-PCR values were normalized by the housekeeping genes and relative to a universal reference sample to derive delta-delta Ct values. Subsequently, the delta-delta Ct value of each of the 22 VDV genes was mean centered and variance scaled to a Z-score.
For each sample i for which all of the VDV genes were analyzed, a VDV signature score (VDVi) was calculated. The VDVi represents a weighted average of z-scores across the analyzed VDV genes and is given by the algorithm:
[formula] wherein Zg,i is the standardized z-score of the qRT-PCR value for gene g of sample i and n, in this instance, is 22. The VDVi value provides quantitative information regarding the extent to which the expression of a particular set of genes is collectively overexpressed or underexpressed relative to a centered mean.
To compare the clinical outcomes (PFS and OS) between marker and/or treatment subgroups, log-rank tests and Cox regression were used, with median time calculated by the Kaplan-Meier analysis. All statistical tests were two-sided.
To test if VDV gene expression could correlate with clinical outcomes, we analyzed VDV gene expression levels in available pre-treatment archival tumor tissue from 103 patients (biomarker evaluable subpopulation) that were enrolled in the XELOX-containing arms. Due to the limited quality and amount of RNA from these clinical samples, gene expression was analyzed in a previously designed and validated “angiogenesis” Fluidigm qRT-PCR chip (FIG. 8B) that included 4 different housekeeping genes (for gene expression normalization), VEGF (as a control), and 22 representative proximal and distal VDV genes comprising: (i) pan-vascular markers such as CD31, CD34, and VE-CADH as indicators of MVD; (ii) key VEGF pathway components and proxVDV genes, including VEGFR-1, VEGFR-2, VEGFR-3, EPHRINB2, NRPs, ESM1, NID2, COL4a2, and LAMA4a; and (iii) additional VDV genes that are components of endothelial signaling pathways and potential modulators of VDV biology, including DLL-4, NOTCH1, ALK1, and EGFL7 (see FIG. 9A for validation of this compacted 22 VDV gene signature).

[4] = 103 biomarker evaluable patients, XELOX arms

In the case of “bevacizumab: recombinant humanized anti-VEGF monoclonal antibody”, the “OS differences (secondary endpoint), addition to chemotherapy” value [1] is given as “did not reach statistical significance”, the “primary endpoint of PFS, addition to chemotherapy” value [1] is given as “significantly improved” and the “progression free survival (PFS) and overall survival (OS), combination with chemotherapy” value [2] is given as “increase”. For the same substance, the “VDV transcripts post-treatment vs pre-treatment biopsies” value (VDV gene expression) was “clear down regulation”, the “OS HR, addition to chemotherapy” value [3, 4] was 0.45 and the “PFS HR, addition to chemotherapy” value [3, 4] was 0.59. For the same substance, the “OS HR, addition to chemotherapy vs chemotherapy alone” value ([3]; VDV high patients) was 0.31, the “PFS HR, addition to chemotherapy vs chemotherapy alone” value ([3]; VDV high patients) was 0.36 and the “OS HR, combination with chemotherapy vs chemotherapy alone” value ([3]; VDV low patients) was 0.58. For the same substance, the “PFS HR, combination with chemotherapy vs chemotherapy alone” value ([3]; VDV low patients) was 0.88.
